Test results as given in US20070276034A1, “Compounds, compositions and methods for the treatment of synucleinopathies” (priority 2002, published 2007).
Like-named read-outs stand apart in the source and are kept apart here.

Legend:
Type in all cases: biochemical
IAPP fibrils [1] = target: T1, IAPP fibrils (Homo sapiens, UniProt P10997); assay: Congo red binding assay with IAPP fibrils; settings: for % Inhibition IAPP (result ± S.D.), Congo red binding: 3-day incubation
T1 construct: purchased Bachem Inc
T1 sequence (P10997 34-70 limits assumed): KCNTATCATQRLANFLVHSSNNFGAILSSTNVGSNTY
How it was run: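 Congo red staining of washed 0.2 μm filters measured the aggregated IAPP retained after a 3-day co-incubation with compound or EDTA. Weight ratios IAPP:compound were 1:1, 1:0.1, 1:0.01 or 1:0.001; loss of color relative to compound-free IAPP was scored.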

IAPP fibrils [2] = target: T1, IAPP fibrils; assay: Thioflavin T fluorometry - disruption of type 2 diabetes IAPP fibrils; settings: 3 days; for inhibition / % Inhibition IAPP (result ± S.D.): 25 μM pre-fibrillized IAPP, 37° C.; for inhibition: read-out: % Inhibition IAPP (result ± S.D.)
How it was run: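 Pre-fibrillized human IAPP (25 μM) incubated 3 days at 37 °C alone or with compound at IAPP:compound weight ratios of 1:1 to 1:0.001. Mixtures then mixed with Thioflavin T in phosphate buffer pH 6.8; fluorescence read at 485 nm (ex 444 nm) after blank subtraction.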

Aβ 1-42 fibrils = target: T2, Aβ 1-42 fibrils (Homo sapiens, UniProt P05067); assay: Thioflavin T fluorometry - disruption of pre-formed Aβ 1-42 Alzheimer's fibrils; settings: 3 days; for inhibition / % Inhibition Aβ (result ± S.D.): 25 μM pre-fibrillized Aβ 1-42, 37° C.; for inhibition: read-out: % Inhibition Aβ (result ± S.D.)
T2 construct: purchased Bachem Inc
T2 sequence (P05067 672-713): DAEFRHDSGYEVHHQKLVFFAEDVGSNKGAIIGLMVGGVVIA
How it was run: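 Pre-fibrillized Aβ1-42 (25 µM) incubated 3 days at 37 °C alone or with compound at Aβ:compound weight ratios 1:1 to 1:0.001. Remaining fibrils quantified by Thioflavin T fluorescence (ex 444/em 485 nm) in phosphate buffer pH 6.8, blank-subtracted for buffer or compound alone.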

NAC fibrils = target: T3, NAC fibrils (Homo sapiens, UniProt P37840); assay: Thioflavin T fluorometry - disruption of Parkinson's disease NAC fibrils; settings: 3 days; for % Inhibition NAC (result ± S.D.): 25 μM pre-fibrillized NAC, 37° C.; for disruption/disassembly of pre-formed NAC fibrils (in words): all concentrations tested (ratios 1:1 to 1:0.001)
T3 construct: NAC is a 35-amino acid fragment of α-synuclein; purchased Bachem Inc
Protocol: In this assay, Thioflavin T binds specifically to NAC fibrils, and this binding produces a fluorescence enhancement at 485 nm that is directly proportional to the amount of NAC fibrils present. The higher the fluorescence, the greater the amount of NAC fibrils present (Naki et al, Lab. Invest. 65:104-110, 1991; Levine III, Protein Sci. 2:404-410, 1993; Amyloid: Int. J. Exp. Clin. Invest. 2:1-6, 1995).
In this study, 25 μM of pre-fibrillized NAC (Bachem Inc) was incubated at 37° C. for 3 days either alone or in the presence of dihydroxy synthetic analog compounds #1, 3, 23, 26, 52, 63, 66, 67, or EDTA (at NAC:test compound weight ratios of 1:1, 1:0.1, 1:0.01 or 1:0.001). Following 3-days of co-incubation, 50 βl of each incubation mixture was transferred into a 96-well microtiter plate containing 150 μl of distilled water and 50 μl of a Thioflavin T solution (i.e. 500 mM Thioflavin T in 250 mM phosphate buffer, pH 6.8). The fluorescence was read at 485 nm (444 nm excitation wavelength) using an ELISA plate fluorometer after subtraction with buffer alone or compound alone, as blank.

[3] = IAPP:test compound wt/wt ratio 1:0.001
[4] = IAPP:test compound wt/wt ratio 1:0.01
[5] = IAPP:test compound wt/wt ratio 1:0.1
[6] = IAPP:test compound wt/wt ratio 1:1
[7] = Aβ:test compound wt/wt ratio 1:0.001
[8] = Aβ:test compound wt/wt ratio 1:0.01
[9] = Aβ:test compound wt/wt ratio 1:0.1
[10] = Aβ:test compound wt/wt ratio 1:1
[11] = all concentrations tested (ratios 1:1 to 1:0.001)
[12] = NAC:test compound wt/wt ratio 1:0.001
[13] = NAC:test compound wt/wt ratio 1:0.01
[14] = NAC:test compound wt/wt ratio 1:0.1
[15] = NAC:test compound wt/wt ratio 1:1

| SMILES | % Inhibition IAPP (result ± S.D.), Congo red binding (IAPP fibrils [1]; [3]) [%] | % Inhibition IAPP (result ± S.D.), Congo red binding (IAPP fibrils [1]; [4]) [%] | % Inhibition IAPP (result ± S.D.), Congo red binding (IAPP fibrils [1]; [5]) [%] | % Inhibition IAPP (result ± S.D.), Congo red binding (IAPP fibrils [1]; [6]) [%] | % Inhibition IAPP (result ± S.D.) (IAPP fibrils [2]; [3]) [%] | % Inhibition IAPP (result ± S.D.) (IAPP fibrils [2]; [4]) [%] | % Inhibition IAPP (result ± S.D.) (IAPP fibrils [2]; [5]) [%] | % Inhibition IAPP (result ± S.D.) (IAPP fibrils [2]; [6]) [%] | % Inhibition NAC (result ± S.D.) (NAC fibrils; [12]) [%] | % Inhibition NAC (result ± S.D.) (NAC fibrils; [13]) [%] | % Inhibition NAC (result ± S.D.) (NAC fibrils; [14]) [%] | % Inhibition NAC (result ± S.D.) (NAC fibrils; [15]) [%] | disruption/disassembly of pre-formed NAC fibrils (in words) (NAC fibrils) | % Inhibition Aβ (result ± S.D.) (Aβ 1-42 fibrils; [7]) [%] | % Inhibition Aβ (result ± S.D.) (Aβ 1-42 fibrils; [8]) [%] | % Inhibition Aβ (result ± S.D.) (Aβ 1-42 fibrils; [9]) [%] | % Inhibition Aβ (result ± S.D.) (Aβ 1-42 fibrils; [10]) [%] | also measured |
| --- | --- | --- | --- | --- | --- | --- | --- | --- | --- | --- | --- | --- | --- | --- | --- | --- | --- | --- |
| O=C(Nc1ccc(O)c(O)c1)c1ccc(O)c(O)c1 [Compound 51, 3,4-dihydroxybenzoic acid 3,4-dihydroxyanilide] | 1.6 ± 1.01 | 3.6 ± 2.59 | 27.5 ± 3.49 | 55.6 ± 1.48 | – | – | – | – | – | – | – | – | – | – | – | – | – | inhibition (IAPP fibrils [2]; [3]): 11.8 ± 6.45%; inhibition (IAPP fibrils [2]; [4]): 56.6 ± 1.69%; inhibition (IAPP fibrils [2]; [5]): 96.6 ± 1%; inhibition (IAPP fibrils [2]; [6]): 99.9 ± 0.11%; inhibition (Aβ 1-42 fibrils; [7]): 29 ± 25.2%; inhibition (Aβ 1-42 fibrils; [8]): 55.3 ± 5.23%; inhibition (Aβ 1-42 fibrils; [9]): 94.9 ± 0.24%; inhibition (Aβ 1-42 fibrils; [10]): 99.4 ± 0.05% |
| O=C(O)CN(CCN(CC(=O)O)CC(=O)O)CC(=O)O [EDTA, reference compound] | 6.6 ± 2.27 | 3.6 ± 2.83 | 0.0 ± 1.91 | 0.0 ± 3.69 | 4.2 ± 1.05 | 0.0 ± 5.23 | 0.1 ± 2.59 | 4.4 ± 9.23 | 0.0 ± 11.6 | 0.0 ± 10.87 | 0.0 ± 5.87 | 20.0 ± 11.8 | no significant inhibition | 0.0 ± 3.01 | 0.0 ± 4.88 | 0.0 ± 7.12 | 11.3 ± 9.67 | inhibition of IAPP fibril binding to Congo red (in words) (IAPP fibrils [1]; all concentrations tested (ratios 1:1 to 1:0.001), 3 days): no significant inhibition; disruption/disassembly of pre-formed IAPP fibrils (in words) (IAPP fibrils [2]; [11]): no significant inhibition; disruption/disassembly of preformed Aβ 1-42 fibrils (in words) (Aβ 1-42 fibrils; [11]): no significant inhibition |
| Oc1ccc(Cc2ccc(O)c(O)c2)cc1O [Compound 3, 3,4,3′,4′-tetrahydroxydiphenylmethane] | 11.1 ± 5.26 | 16.3 ± 1.13 | 37.9±3.10 | 55.5±2.68 | 30.7 ± 6.71 | 79.9±1.47 | 97.7±0.19 | 100 ± 0.20 | 67.3 ± 6.37 | 93.9±0.77 | 91.0±1.99 | 98.0 ± 1.78 | dose-dependent disruption/disassembly | 5.5 ± 1.99 | 53.1 ± 1.67 | 57.8±6.36 | 99.5 ± 0.10 | – |
